20 compounds from patent publication US11660293B2, “Substituted 2-azabicyclo[3.1.1]heptane and 2-azabicyclo[3.2.1]octane derivatives as orexin receptor antagonists” (Chronos Therapeutics Limited, priority 2017, dated 2023) can be followed below.

Experiment [1] concerns the target human Orexin type 2 receptors (Homo sapiens (Human), UniProt O43614). Put plainly: Scintillation Proximity Assay (SPA) binding assay, [3H]EMPA displacement, HEK-hOX2 membranes. On the procedure:
Scintillation Proximity Assay (SPA) Binding Assays
CHO cells stably transfected with human Orexin type 1 receptors (CHO-hOX1) or HEK-293 cells transiently transfected with human Orexin type 2 receptors (HEK-hOX2) were collected after 16 h induction with 5 mM sodium butyrate. The cell pellets were re-suspended, homogenized in 15 mM Tris/HCl pH=7.5, 1 mM EGTA, 0.3 mM EDTA, 2 mM MgCl2, protease inhibitors and centrifuged at 40,000 g (20 min, 4° C.). After re-suspension, homogenization and centrifugation as above, the final pellets were re-suspended in 75 mM Tris/HCl pH=7.5, 1 mM EGTA, 0.3 mM EDTA, 12.5 mM MgCl2, 250 mM Sucrose, protease inhibitors, divided into aliquots and frozen down at −80° C.
CHO-hOX1 cell membranes (6 μg ml^−1) or HEK-hOX2 membranes (8 μg ml^−1) were pre-coupled with 1.0 mg ml^−1 of Wheatgerm Agglutinin-coated Yttrium Silicate (YSi-WGA) SPA beads (Perkin Elmer) in buffer containing 25 mM HEPES pH=7.4, 1 mM CaCl2), 5 mM MgCl2, 0.01% (w/v) BSA, 0.02% (w/v) Pluronic F-127 by shaking at room temperature for 2.5-3 h.
(§1) The binding was performed in a final volume of 200 μl. 100 μl of hOX1 or hOX2 beads-membranes suspension were added to 100 μl of [^3H]SB-674042 or [^3H]EMPA solutions (radioligand concentration 2 nM final in the assay), into the 96-well Isoplates containing the 2 μl/well of compounds to be tested. Nonspecific binding was measured in the presence of 1 μM Almorexant. Assay plates were then incubated at room temperature for 3 h before being counted in a Microbeta scintillation counter (PerkinElmer).
Data were analysed by non-linear regression analysis using XLfit Software.

In experiment [2] the target is human Orexin type 1 receptors (Homo sapiens (Human), UniProt O43613). Put plainly: Scintillation Proximity Assay (SPA) binding assay, [3H]SB-674042 displacement, CHO-hOX1 membranes. The procedure: as §1, with “Scintillation Proximity Assay (SPA) Binding Assays CHO cells stably transfected with human Orexin type 1 receptors (CHO-hOX1) or HEK-293 cells transiently transfected with human Orexin type 2 receptors (HEK-hOX2) were collected after 16 h induction with 5 mM sodium butyrate. […] The” for “The”, “(PerkinElmer). Data were analysed by non-linear regression analysis using XLfit Software.” for “(PerkinElmer).”
human Orexin type 1 receptors, sequence (O43613 whole entry): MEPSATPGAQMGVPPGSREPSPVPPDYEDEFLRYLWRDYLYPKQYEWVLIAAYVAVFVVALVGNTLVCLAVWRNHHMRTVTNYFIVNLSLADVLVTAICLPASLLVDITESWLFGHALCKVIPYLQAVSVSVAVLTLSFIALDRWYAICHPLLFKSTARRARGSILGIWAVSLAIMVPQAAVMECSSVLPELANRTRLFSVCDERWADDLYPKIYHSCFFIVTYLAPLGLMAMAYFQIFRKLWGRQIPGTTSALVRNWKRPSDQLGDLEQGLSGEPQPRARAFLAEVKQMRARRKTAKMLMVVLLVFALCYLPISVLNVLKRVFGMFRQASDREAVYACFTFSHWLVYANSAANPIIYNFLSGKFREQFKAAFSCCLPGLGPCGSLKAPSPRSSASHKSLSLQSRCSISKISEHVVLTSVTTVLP

human Orexin type 2 receptors, sequence (O43614 whole entry): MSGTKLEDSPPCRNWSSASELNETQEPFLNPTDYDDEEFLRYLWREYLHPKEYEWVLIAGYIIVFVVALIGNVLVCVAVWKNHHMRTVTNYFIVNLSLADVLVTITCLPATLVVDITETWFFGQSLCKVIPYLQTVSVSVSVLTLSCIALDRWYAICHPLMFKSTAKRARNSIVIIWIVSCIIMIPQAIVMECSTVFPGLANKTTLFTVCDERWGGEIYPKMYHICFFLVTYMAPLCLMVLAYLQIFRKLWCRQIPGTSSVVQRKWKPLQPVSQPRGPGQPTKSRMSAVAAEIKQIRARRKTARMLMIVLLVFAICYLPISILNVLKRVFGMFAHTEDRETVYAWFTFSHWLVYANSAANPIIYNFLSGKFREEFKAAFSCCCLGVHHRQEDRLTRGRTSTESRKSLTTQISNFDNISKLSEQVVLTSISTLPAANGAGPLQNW

In the case of `C[C@@H]1C2CC(C2)N(C(=O)c2cc(Cl)ccc2-n2nccn2)C1CNc1ncc(C(F)(F)F)cn1` (single isomer, unassigned) [Example 241, N-{[(3R,4S) or (3S,4R)-2-[5-chloro-2-(2H-1,2,3-triazol-2-yl)benzoyl]-4-methyl-2-azabicyclo[3.1.1]heptan-3-yl]methyl}-5-(trifluoromethyl)pyrimidin-2-amine], the “OX2 pKi (SPA binding)” value in experiment [1] (Table 2, [3H]EMPA 2 nM) was 5.59. The “OX1 pKi (SPA binding)” value in experiment [2] (Table 2, [3H]SB-674042 2 nM) came to 8.27.

Regarding `C[C@@H]1C2CC(C2)N(C(=O)c2cc(C#N)ccc2-n2nccn2)C1CNc1cnc(C(F)(F)F)cn1` (mixture of isomers) [Example 237, cis-3-[4-methyl-3-({[5-(trifluoromethyl)pyrazin-2-yl]amino}methyl)-2-azabicyclo[3.1.1]heptane-2-carbonyl]-4-(2H-1,2,3-triazol-2-yl)benzonitrile], the “OX2 pKi (SPA binding)” value in experiment [1] (Table 2, [3H]EMPA 2 nM) worked out at 4.82. In experiment [2] (Table 2, [3H]SB-674042 2 nM), the “OX1 pKi (SPA binding)” value stood at 7.33.

For the compound `Cc1nc(C(=O)N2C3CC(C3)[C@@H](C)C2CNc2nc3ccc(F)cc3s2)c(-c2ncccn2)s1` (single isomer, unassigned) [Example 164, 6-fluoro-N-({(3R,4S) or (3S,4R)4-methyl-2-[2-methyl-5-(pyrimidin-2-yl)-1,3-thiazole-4-carbonyl]-2-azabicyclo[3.1.1]heptan-3-yl}methyl)-1,3-benzothiazol-2-amine], the “OX2 pKi (SPA binding)” value in experiment [1] (Table 2, [3H]EMPA 2 nM) was 5.68. Moreover, the “OX1 pKi (SPA binding)” value in experiment [2] (Table 2, [3H]SB-674042 2 nM) is 8.93.

Take `Cc1ccc(-n2nccn2)c(C(=O)N2C(COc3ccc(F)cc3)CC3CC2C3)n1` (stereo not shown) [Example 39]: the “OX2 pKi (SPA binding)” value in experiment [1] (Table 1, [3H]EMPA 2 nM) is 6.19. For the same compound, the “OX1 pKi (SPA binding)” value in experiment [2] (Table 1, [3H]SB-674042 2 nM) is reported as 7.64.

Turning to `Cc1ccc(-c2nccs2)c(C(=O)N2C3CC(C3)[C@H](C)C2COc2ccc(F)cc2)c1` (mixture of isomers) [Example 101, trans-3-[(4-fluorophenoxy)methyl]-4-methyl-2-[5-methyl-2-(1,3-thiazol-2-yl)benzoyl]-2-azabicyclo[3.1.1]heptane], in experiment [1] (Table 1, [3H]EMPA 2 nM), the “OX2 pKi (SPA binding)” value is listed as 6.15. Moreover, the “OX1 pKi (SPA binding)” value in experiment [2] (Table 1, [3H]SB-674042 2 nM) amounted to 8.02.

Consider `C[C@@H]1C2CC(C2)N(C(=O)c2cc(Cl)ccc2-n2nccn2)C1CNc1nc2cccnc2s1` (mixture of isomers) [Example 234, cis-N-({2-[5-chloro-2-(2H-1,2,3-triazol-2-yl)benzoyl]-4-methyl-2-azabicyclo[3.1.1]heptan-3-yl}methyl)-[1,3]thiazolo[5,4-b]pyridin-2-amine], for which the “OX2 pKi (SPA binding)” value in experiment [1] (Table 2, [3H]EMPA 2 nM) is listed as 5.46. The “OX1 pKi (SPA binding)” value in experiment [2] (Table 2, [3H]SB-674042 2 nM) was 8.45.

Consider `C[C@@H]1C2CC(C2)N(C(=O)c2cc(F)ccc2-n2nccn2)C1CNc1ncc(C2CC2)cn1` (stereo partly shown) [Example 260], for which the “OX2 pKi (SPA binding)” value in experiment [1] (Table 2, [3H]EMPA 2 nM) is 4.89. In addition, in experiment [2] (Table 2, [3H]SB-674042 2 nM), the “OX1 pKi (SPA binding)” value amounted to 7.45.

On to `Cc1nc(C(=O)N2C3CC(C3)[C@H](F)[C@H]2COc2ccc(F)cn2)c(-c2ccccc2)s1` (single isomer, unassigned) [Example 63, (3R,4S or 3S,4R)-4-fluoro-3-{[(5-fluoropyridin-2-yl)oxy]methyl}-2-(2-methyl-5-phenyl-1,3-thiazole-4-carbonyl)-2-azabicyclo[3.1.1]heptane], for which the “OX2 pKi (SPA binding)” value in experiment [1] (Table 1, [3H]EMPA 2 nM) came to 6.37. For the same compound, in experiment [2] (Table 1, [3H]SB-674042 2 nM), the “OX1 pKi (SPA binding)” value was found to be 8.06.

Regarding `Cc1nc(C(=O)N2C(COc3ncc4ccn(C)c4n3)CC3CC2C3)c(-c2ccccc2)s1` (stereo not shown) [Example 57], the “OX2 pKi (SPA binding)” value in experiment [1] (Table 1, [3H]EMPA 2 nM) was found to be 6.86. The “OX1 pKi (SPA binding)” value in experiment [2] (Table 1, [3H]SB-674042 2 nM) worked out at 7.35.

Consider `Cc1ccc(-n2nccn2)c(C(=O)N2C3CC(C3)[C@@H](C)C2CNc2nc3ccc(F)cc3s2)n1` (mixture of isomers) [Example 152, cis-6-fluoro-N-({4-methyl-2-[6-methyl-3-(2H-1,2,3-triazol-2-yl)pyridine-2-carbonyl]-2-azabicyclo[3.1.1]heptan-3-yl}methyl)-1,3-benzothiazol-2-amine], for which, in experiment [1] (Table 2, [3H]EMPA 2 nM), the “OX2 pKi (SPA binding)” value stood at 6.1. Also, in experiment [2] (Table 2, [3H]SB-674042 2 nM), the “OX1 pKi (SPA binding)” value was 8.68.

As to `Cc1ccc(-n2nccn2)c(C(=O)N2C3CC(C3)[C@@H](C)C2COc2ccc(F)cn2)n1` (mixture of isomers) [Example 130, cis-3-{[(5-fluoropyridin-2-yl)oxy]methyl}-4-methyl-2-[6-methyl-3-(2H-1,2,3-triazol-2-yl)pyridine-2-carbonyl]-2-azabicyclo[3.1.1]heptane], the “OX2 pKi (SPA binding)” value in experiment [1] (Table 2, [3H]EMPA 2 nM) stood at 6.08. Further, in experiment [2] (Table 2, [3H]SB-674042 2 nM), the “OX1 pKi (SPA binding)” value was found to be 6.9.

`Cc1ccc(-n2nccn2)c(C(=O)N2C3CC(C3)[C@@H](C)C2CNc2ncc3ccccc3n2)n1` (stereo partly drawn) [Example 155, cis-N-({4-methyl-2-[6-methyl-3-(2H-1,2,3-triazol-2-yl)pyridin-2-carbonyl]-2-azabicyclo[3.1.1]heptan-3-yl}methyl)quinazolin-2-amine]: the “OX2 pKi (SPA binding)” value in experiment [1] (Table 2, [3H]EMPA 2 nM) came out at 5.49. The “OX1 pKi (SPA binding)” value in experiment [2] (Table 2, [3H]SB-674042 2 nM) is given as 7.71.

On to `Cc1nc(C(=O)N2[C@H]3C[C@H](C3)[C@@H](C)[C@H]2COc2ccc(F)cc2)c(-c2ccccn2)s1` (racemic) [Example 132, cis-3-[(4-fluorophenoxy)methyl]-4-methyl-2-[2-methyl-5-(pyridin-2-yl)-1,3-thiazole-4-carbonyl]-2-azabicyclo[3.1.1]heptane], for which, in experiment [1] (Table 2, [3H]EMPA 2 nM), the “OX2 pKi (SPA binding)” value is recorded as 6.72. In addition, the “OX1 pKi (SPA binding)” value in experiment [2] (Table 2, [3H]SB-674042 2 nM) came out at 7.97.

In the case of `Cc1ccc(-n2nccn2)c(C(=O)N2C3CC(C3)[C@H](C)C2COc2ccc(Cl)cc2)n1` (single isomer, unassigned) [Example 120, (3R,4R) or (3S,4S)-3-[(4-chlorophenoxy)methyl]-4-methyl-2-[6-methyl-3-(2H-1,2,3-triazol-2-yl)pyridine-2-carbonyl]-2-azabicyclo[3.1.1]heptane], the “OX2 pKi (SPA binding)” value in experiment [1] (Table 2, [3H]EMPA 2 nM) was found to be 5.98. In experiment [2] (Table 2, [3H]SB-674042 2 nM), the “OX1 pKi (SPA binding)” value was determined as 8.

In the case of `Cc1ccc(-n2nccn2)c(C(=O)N2C3CC(C3)[C@H](C)C2COc2ccc(Cl)cc2)n1` (single isomer, unassigned) [Example 119, (3S,4S) or (3R,4R)-3-[(4-chlorophenoxy)methyl]-4-methyl-2-[6-methyl-3-(2H-1,2,3-triazol-2-yl)pyridin-2-carbonyl]-2-azabicyclo[3.1.1]heptane], the “OX2 pKi (SPA binding)” value in experiment [1] (Table 2, [3H]EMPA 2 nM) is recorded as 5.77. The “OX1 pKi (SPA binding)” value in experiment [2] (Table 2, [3H]SB-674042 2 nM) is 7.08.

In the case of `C[C@@H]1C2CC(C2)N(C(=O)c2cc(F)ccc2-n2nccn2)C1CNc1cnc2ccccc2n1` (single isomer, unassigned) [Example 189, N-({(3R,4S) or (3S,4R)2-[5-fluoro-2-(2H-1,2,3-triazol-2-yl)benozyl]-4-methyl-2-azabicyclo[3.1.1]heptan-3-yl}methyl)quinoxalin-2-amine], the “OX2 pKi (SPA binding)” value in experiment [1] (Table 2, [3H]EMPA 2 nM) is 5.92. Further, the “OX1 pKi (SPA binding)” value in experiment [2] (Table 2, [3H]SB-674042 2 nM) turned out to be 8.51.

As for `Cc1ccc(-n2nccn2)c(C(=O)N2C3CC(C3)[C@H](C)C2COc2ccc(F)c(F)c2)n1` (mixture of isomers) [Example 111, trans-3-[(3,4-difluorophenoxy)methyl]-4-methyl-2-[6-methyl-3-(2H-1,2,3-triazol-2-yl)pyridine-2-carbonyl]-2-azabicyclo[3.1.1]heptane], the “OX2 pKi (SPA binding)” value in experiment [1] (Table 1, [3H]EMPA 2 nM) was 5.99. The “OX1 pKi (SPA binding)” value in experiment [2] (Table 1, [3H]SB-674042 2 nM) was 7.53.

`Cc1nc(C(=O)N2C(COc3cc4ccccc4cn3)CC3CC2C3)c(-c2ccccc2)s1` (stereo not shown) [Example 38]: in experiment [1] (Table 1, [3H]EMPA 2 nM), the “OX2 pKi (SPA binding)” value is recorded as 6.9. For the same compound, the “OX1 pKi (SPA binding)” value in experiment [2] (Table 1, [3H]SB-674042 2 nM) was 7.61.

In the case of `Cc1ccc(-c2nccs2)c(C(=O)N2C3CC(C3)[C@@H](C)C2COc2ccc(F)cc2)n1` (mixture of isomers) [Example 96, cis-3-[(4-fluorophenoxy)methyl]-4-methyl-2-[6-methyl-3-(1,3-thiazol-2-yl)pyridine-2-carbonyl]-2-azabicyclo[3.1.1]heptane], the “OX2 pKi (SPA binding)” value in experiment [1] (Table 1, [3H]EMPA 2 nM) stood at 6.88. Also, the “OX1 pKi (SPA binding)” value in experiment [2] (Table 1, [3H]SB-674042 2 nM) is 8.18.

As to `Cc1ccc(-n2nccn2)c(C(=O)N2C3CC(C3)[C@@H](C)C2CNc2ccc(Cl)cn2)n1` (mixture of isomers) [Example 156, cis-5-chloro-N-({4-methyl-2-[6-methyl-3-(2H-1,2,3-triazol-2-yl)pyridine-2-carbonyl]-2-azabicyclo[3.1.1]heptan-3-yl}methyl)pyridin-2-amine], in experiment [1] (Table 2, [3H]EMPA 2 nM), the “OX2 pKi (SPA binding)” value worked out at 5.35. Further, the “OX1 pKi (SPA binding)” value in experiment [2] (Table 2, [3H]SB-674042 2 nM) turned out to be 7.53.
